According to patent US20120276122A1, “METHODS FOR DIAGNOSIS AND TREATMENT OF CELLULAR PROLIFERATIVE DISORDERS” (Sanford-Burnham Medical Research Institute, priority 2010, published 2012):

Tests used:
[1] = tested on: SCC9 cells; experiment: ATF2 mitochondrial localization, immunofluorescent staining of coverslip-grown cells; type: cell-based; conditions: for cells with ATF2 accumulation at the mitochondria: SCC9, 5 μM etoposide overnight, 3 replicate coverslips
Protocol: FIG. 1A) is an image depicting control, 5 μM etoposide-treated (ETO, overnight treatment), UVC-treated (20 J/m^2), ionizing radiation-treated (IR, 5Gy), or 40 ng/ml leptomycin B (LMB) and ETO co-treated SCC9 cells grown on coverslips were immunofluorescently stained for HSP60,ATF2 or DNA. Immunostained control and ETO panels represent 89±4% and 64±11%, respectively, of the cells from 3 independent replicate coverslips per condition (n>100 cells counted per replicate). […] C) is a photograph depicting coverslip-grown SCC9 cells that were co-treated with 40 ng/ml leptomycin B (LMB) and ETO overnight, and were subsequently fixed and immunofluorescently stained as indicated. D) is a gel depicting SCC9 cells transfected with the Jun2 promoter-luciferase construct and assayed for luciferase activity prior to (Control) or after ETO treatment. E) is a bar graph depicting luciferase activity of mitochondria (M) purified from ETO-treated SCC9 cells subject to proteolysis protection assay with titrated concentrations of trypsin: 0.2 (1), 0.1 (2), 0.05 (3), 0.025 (4), or 0.0125 (5) μg in the absence or presence of 1% Triton X-100 (TX) detergent. Scale bars represent 10 μm.
Following indicated treatments, coverslip-grown cells were fixed in fixation buffer containing 4% formaldehyde and 2% sucrose in phosphate buffered saline (PBS) for 20 minutes at room temperature. After fixation, coverslips were rinsed twice in PBS and permeabilized in permeabilization buffer (0.4% Triton X-100 (TX-100)/0.4% bovine serum albumin (BSA) in PBS) for 20 minutes. Primary antibodies were applied at 1:250 dilution in staining buffer (0.1% TX-100/0.1% BSA in PBS) overnight at 4° C. in a humid chamber. Coverslips were subsequently subject to 5 standing washes in wash buffer (0.2% TX-100/0.2% BSA in PBS, 5 minutes per wash). Secondary antibodies (Alexa Fluor secondary 350, 488 or 568, Invitrogen) were applied at 1:250 dilution in staining buffer for 2-3 hours at room temperature in a humid chamber in the dark. Prior to mounting with Vectorshield containing DAPI (Vector Laboratories, CA), coverslips were washed twice additionally in wash buffer. Immunofluorescent analysis was conducted on an Olympus TH4-100 fluorescent microscope. At least 3 Z-planes per field were captured and analyzed using Slidebook V.4.1, and Z-projection images of average intensity were constructed using ImageJ V.1.43u.

[2] = tested on: melanoma cells; conditions: melanoma cells versus melanocytes; cited from earlier work
[3] = tested on: melanoma; conditions: syngeneic mice, human melanoma xenografts; cited from earlier work
[4] = tested on: ATF2; conditions: cited from earlier work; for ATF2 nuclear exclusion: melanoma cells
[5] = tested on: Jun2 promoter; experiment: Jun2 promoter-luciferase assay (ATF2 transcriptional activity); type: cell-based; conditions: for Jun2-luciferase activity: SCC9
Protocol: C) is a photograph depicting coverslip-grown SCC9 cells that were co-treated with 40 ng/ml leptomycin B (LMB) and ETO overnight, and were subsequently fixed and immunofluorescently stained as indicated. D) is a gel depicting SCC9 cells transfected with the Jun2 promoter-luciferase construct and assayed for luciferase activity prior to (Control) or after ETO treatment. E) is a bar graph depicting luciferase activity of mitochondria (M) purified from ETO-treated SCC9 cells subject to proteolysis protection assay with titrated concentrations of trypsin: 0.2 (1), 0.1 (2), 0.05 (3), 0.025 (4), or 0.0125 (5) μg in the absence or presence of 1% Triton X-100 (TX) detergent. Scale bars represent 10 μm.
FIG. 3A) is an image depicting coverslip-grown SCC9 cells treated with 1 or 5 μM PKCε translocation inhibitor overnight, and immunofluorescently stained with indicated antibodies. B) is a photograph depicting coverslip-grown SCC9 cells treated with 10 nM siRNA targeting PKCε overnight were immunofluorescently stained with indicated antibodies. […] F) is a photograph depicting coverslip-grown SCC9 cells were transfected with HA-tagged wildtype ATF2 (WT), ATF2T52A or ATF2T52E, and subsequently immunofluorescently stained with indicated antibodies. G-H) is a series of bar graphs that show quantitation of (Left) SCC9 cells transfected with Jun2 promoter-luciferase construct and empty vector (EV) or caPKCε, assayed for luciferase activity after ETO treatment. (Right) SCC9 cells stably knocked down for ATF2 with a 3′-UTR-targeted shRNA, reconstituted with Jun2 promoter-luciferase construct and ATF2 (WT), ATF2T52A or ATF2T52E and subsequently assayed for luciferase activity. Scale bars represent 10 μm.

[6] = biological target: T1, PKCε (Homo sapiens, UniProt Q02156); experiment: In vitro kinase assay, PKCε phosphorylation of GST-tagged ATF2 50-100 peptide; type: biochemical
T1 sequence (Q02156 1-737): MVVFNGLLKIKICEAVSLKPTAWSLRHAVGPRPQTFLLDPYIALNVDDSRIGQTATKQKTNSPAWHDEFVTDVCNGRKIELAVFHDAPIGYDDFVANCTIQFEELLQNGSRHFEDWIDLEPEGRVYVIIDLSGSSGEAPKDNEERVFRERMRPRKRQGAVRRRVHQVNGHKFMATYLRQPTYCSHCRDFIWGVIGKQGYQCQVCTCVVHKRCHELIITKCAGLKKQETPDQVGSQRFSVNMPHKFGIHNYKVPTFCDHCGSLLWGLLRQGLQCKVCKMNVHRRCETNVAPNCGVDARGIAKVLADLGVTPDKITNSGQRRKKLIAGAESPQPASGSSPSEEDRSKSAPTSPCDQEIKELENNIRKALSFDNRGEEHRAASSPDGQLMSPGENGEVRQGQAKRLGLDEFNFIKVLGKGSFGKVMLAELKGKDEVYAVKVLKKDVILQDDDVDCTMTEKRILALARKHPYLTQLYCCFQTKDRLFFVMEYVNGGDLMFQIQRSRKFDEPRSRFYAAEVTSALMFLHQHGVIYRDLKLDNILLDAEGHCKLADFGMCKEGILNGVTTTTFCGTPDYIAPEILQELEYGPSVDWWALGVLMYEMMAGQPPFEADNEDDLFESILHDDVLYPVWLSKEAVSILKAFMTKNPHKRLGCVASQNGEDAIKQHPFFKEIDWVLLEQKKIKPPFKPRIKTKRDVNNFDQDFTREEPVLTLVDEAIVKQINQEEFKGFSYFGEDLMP
Protocol: To determine whether Thr52, the predicted PKCε site for phosphorylation of ATF2, regulates mitochondrial translocation of ATF2, phosphorylation of ATF2 by PKCε in vitro was assessed, as well as the localization of ATF2^T52A (a non-phosphorylatable alanine phosphomutant) and ATF2^T52E (a glutamic acid phosphomimic). […] This phosphorylation is inhibited upon addition of PKCε catalytic inhibitor, Gö6850 (FIG. 3E). […] Collectively, these findings establish that ATF2 mitochondrial localization is regulated by PKCε through phosphorylation at T52.

[7] = tested on: PKCε pS729; experiment: Immunoblot of pS729 PKCε (active PKCε); type: cell-based; conditions: SCC9, 5 μM overnight
[8] = tested on: SCC9 cells; experiment: HK1 co-localization with mitochondria (immunostaining and MitoTracker); type: cell-based; conditions: SCC9, 5 μM etoposide overnight
From the text: The arrowheads indicate HA-positive cells. Scale bars represent 10 μm.

[9] = tested on: SCC9 cells; experiment: Annexin-V / propidium iodide staining and FACS analysis (cell death); type: cell-based; conditions: SCC9, 5 μM, overnight, representative FACS plot
Protocol: Cells were stained with Annexin-V and subject to FACS analysis. n=10,000 cells per replicate; 3 replicates per condition were performed. •: p=0.0001; #: p<0.0001.
For FACS analyses, n=10,000 cells per replicate over 3 independent replicates.

[10] = tested on: ATF2 pT52; experiment: Immunoblot densitometry of pT52/Total ATF2; type: cell-based; conditions: SCC9, etoposide treatment
From the text: B) Control or ATF2 -knocked down LU1205 cells were subject to immunoblot analysis with indicated antibodies. […] D) is an image showing control or ETO-treated coverslip-grown LU1205, 501Mel or UACC903 cells immunofluorescently stained with indicated antibodies.

## CCC(=C/[C@H](C)C/C=C/C(C)=C/[C@@H](C)C(=O)[C@@H](C)[C@H](O)[C@@H](C)C/C(C)=C/C(=O)O)/C=C/[C@@H]1OC(=O)C=C[C@@H]1C [leptomycin B]
[1]; SCC9, 40 ng/ml leptomycin B with ETO
  mitochondrial accumulation of ATF2 following etoposide treatment: prevented mitochondrial accumulation of ATF2
[1]; SCC9, leptomycin B pre-treatment 40 ng/ml 6 hours, then 5 μM PKCε-i
  ATF2 mitochondrial translocation following inhibition of PKCε: efficiently blocked

## ATF2 50-100 peptide: 50 amino acid long peptide derived from ATF2 (amino acids 50-100), contains T52 (EMTLKFGPARNDSVIVADQTPTPTRFLKNCEEVGLFNELASPFENEFKKAS; UniProt P15336 50-100, looked up, fragment)
[2]
  sensitization to apoptosis: sensitized melanoma cells (but not melanocytes) to apoptosis
[3]
  melanoma growth: inhibit melanoma growth in syngeneic mice
[4]
  ATF2 transcriptional activity: inhibit ATF2 transcriptional activity
  ATF2 nuclear exclusion: caused nuclear exclusion of ATF2

## CN(C)CCCn1cc(C2=C(c3c[nH]c4ccccc34)C(=O)NC2=O)c2ccccc21 [Gö6850]
[5]
  Jun2-luciferase activity: reduce Jun2-luciferase activity to similar extents as knockdown of ATF2
[6]
  PKCε phosphorylation of WT ATF2 peptide: inhibited

## COc1cc([C@@H]2c3cc4c(cc3[C@@H](O[C@@H]3O[C@@H]5CO[C@@H](C)O[C@H]5[C@H](O)[C@H]3O)[C@H]3COC(=O)[C@H]23)OCO4)cc(OC)c1O [etoposide]
[7]
  PKCε phosphorylation on Ser729: decreased
[5]
  Jun2-luciferase activity: reduce Jun2-luciferase activity to similar extents as knockdown of ATF2
[5]; SCC9, after ETO treatment
  reduction of luciferase activity driven by the Jun2 promoter: ~50%
[1]
  cells with ATF2 accumulation at the mitochondria: ~64%
[1]; listed as ETO
  cells with ATF2 accumulation at the mitochondria: 64±11%
[8]
  HK1 co-localization with mitochondria: enhanced
[9]
  Annexin V-negative (AV−) percentage: 89.5%
  Annexin V-positive (AV+) percentage: 11.5%
[10]
  levels of pT52: lower

## ATF2 50-60 peptide: 10 amino acid long peptide derived from ATF2 (amino acids 50-60), contains T52 (EMTLKFGPARN; UniProt P15336 50-60, looked up, fragment)
[2]
  sensitization to apoptosis: sensitized melanoma cells (but not melanocytes) to apoptosis
[3]
  melanoma growth: inhibit melanoma growth in syngeneic mice
[4]
  ATF2 transcriptional activity: inhibit ATF2 transcriptional activity
  ATF2 nuclear exclusion: caused nuclear exclusion of ATF2
